Values after ≈ are worked out from the molar mass of the structure shown.

The subject of experiment [1] is Staphylococcus aureus. Description: Minimum inhibitory concentration (MIC). Format: cell-based. Particulars: against Staphylococcus aureus.
Experiment [2] deals with Escherichia coli. Description: Minimum inhibitory concentration (MIC). Format: cell-based. The conditions noted are these: against Escherichia coli.
Experiment [3] relates to Escherichia coli (gram-negative bacteria). Description: Antimicrobial efficacy of polymer samples, ISO22196 test method.
Experiment [4] has as its system Staphylococcus aureus (gram-positive bacteria). The description is as above. The conditions noted are these: GBA alone at more than 4500 ppm in TPU, Table 3 (S. aureus).

Regarding `OCCCc1ccccc1` [3-phenylpropanol], the minimum inhibitory concentration (MIC) in experiment [1] is 4000 µg/mL (≈ 29.4 mM); in experiment [2], 3000 to 4000 µg/mL (≈ 22 to 29.4 mM).

In the case of `O=C(O)c1ccccc1` [GBA, benzoic acid], in experiment [3] (2500 ppm GBA in TPU), the “efficacy against E. coli” value is on record as “no efficacy”. In experiment [3] (4500 ppm GBA alone in TPU, E. coli), the log reduction result was “less than 1”. In addition, the “log reduction (consistent antimicrobial efficacy)” value in experiment [3] (5250 ppm level in TPU, E. coli) is recorded as greater than 1. For the same compound, the antimicrobial efficacy result in experiment [4] is “did not exhibit antimicrobial efficacy”.
